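The compound was tested at five concentrations on cells cultured in 96-well plates, with a 48-hour exposure period. The concentration for 50% growth inhibition is given as GI50. The concentration for full growth arrest is given as TGI.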
What was measured:
Assay in all cases: NCI-60 cell line screen, 48 h
[1] = test system: UO-31 renal
[2] = test system: K-562 leukemia
[3] = test system: EKVX NSCLC
[4] = test system: SK-MEL-5 melanoma
[5] = test system: KM12 colon
[6] = test system: SK-OV-3 ovarian
[7] = test system: IGROV1 ovarian
[8] = test system: TK-10 renal
[9] = test system: SK-MEL-28 melanoma
[10] = test system: MALME-3M melanoma

Structure (SMILES) | GI50 [1] [µM] | GI50 [2] [µM] | TGI [2] [µM] | GI50 [3] [µM] | TGI [3] [µM] | GI50 [4] [µM] | TGI [4] [µM] | GI50 [5] [µM] | TGI [5] [µM] | GI50 [6] [µM] | TGI [6] [µM] | GI50 [7] [µM] | GI50 [8] [µM] | TGI [8] [µM] | GI50 [9] [µM] | TGI [9] [µM] | TGI [1] [µM] | TGI [10] [µM] | TGI [7] [µM] | GI50 [10] [µM]
O=c1cccc(C#CC#C/C=C/CO)o1 | 2.6 | 4.92 | > 100 | 2.77 | 6.47 | 2.48 | 6.24 | 1.64 | 4.34 | 10.8 | 22.8 | 2.82 | 2.21 | 4.66 | 2.75 | 10.9 | – | – | – | –
O=C1OC2C(O)C(=O)OC2C1O (centres undefined) | – | – | > 100 | – | > 100 | – | > 100 | – | > 100 | – | > 100 | – | – | – | – | > 100 | > 100 | > 100 | > 100 | –
O=C([O-])c1ccccc1Nc1ccccc1[O-].[Ni+3].[OH3+].[OH3+].[OH3+] | > 100 | > 100 | > 100 | > 100 | > 100 | > 100 | > 100 | > 100 | > 100 | > 100 | > 100 | > 100 | – | – | > 100 | > 100 | > 100 | > 100 | > 100 | > 100
CC(C)CC(=O)NS(=O)(=O)c1ccccc1 | – | – | > 100 | – | > 100 | – | – | – | > 100 | – | > 100 | – | – | > 100 | – | > 100 | > 100 | > 100 | > 100 | –
O=CC1(C2(C=O)c3ccccc3-c3ccccc32)c2ccccc2-c2ccccc21 | 1.92 | 2.3 | > 22.6 | 1.96 | 5.24 | 1.95 | 4.02 | – | – | – | – | 0.323 | 2.63 | 5.51 | 1.72 | 3.38 | 4.32 | 5.94 | 0.924 | 2.68
Cc1cccc(NC(=O)CC#N)c1Cl | – | – | > 100 | – | > 100 | – | – | – | > 100 | – | > 100 | – | – | > 100 | – | > 100 | > 100 | > 100 | > 100 | –
CSc1nc2c(c(=O)[nH]1)C(c1ccc(Cl)cc1)C1=C(N2)/C(=C/c2ccc(Cl)cc2)CNC1 (centres undefined) | 1.43 | 3.09 | 15.1 | – | – | 3.26 | 12.4 | 2.06 | 4.47 | 2.66 | 6.33 | 2.56 | – | – | 2.3 | 6.47 | 2.91 | 19.2 | 7.04 | 4.41
COc1ccc(C#CCC(OC2OC(CO)C(O)C(O)C2O)C(O)c2ccc(OC)c(OC)c2)cc1OC (centres undefined) | – | – | > 100 | – | > 100 | – | > 100 | – | > 100 | – | > 100 | – | – | – | – | > 100 | > 100 | > 100 | > 100 | –
O=C1c2ccccc2C(=O)c2c1ccc1c2OCO1 | – | – | – | – | > 100 | – | > 100 | – | > 100 | – | > 100 | – | – | > 100 | – | > 100 | > 100 | > 100 | > 100 | –
CCSc1nc2n(c(=S)n1)CCN2C | – | – | 79.5 | – | 69.6 | – | 30 | – | 52.3 | – | 50.2 | – | – | – | – | 41.3 | 58.9 | 36.2 | 45.9 | –
CCN(CC(COc1ccc2c(c1)[n+]([O-])nc(N)[n+]2[O-])OC(C)=O)C(C)=O (centres undefined) | – | – | > 100 | – | > 100 | – | > 100 | – | > 100 | – | 74.9 | – | – | > 100 | – | > 100 | > 100 | – | > 100 | –
O=C(CCl)Nc1ccc2c(c1)C(=O)c1ccc(NC(=O)CCl)cc1C2=O | 0.449 | 0.319 | > 100 | – | – | 0.214 | 0.502 | 1.06 | 2.42 | 1.63 | 7.01 | 0.26 | 1.81 | 7.33 | 0.321 | 1.33 | 1.88 | 0.888 | 1.15 | 0.219
CC1=CC2C(C(C)C)CC1C1C(=O)OC(=O)C21 (centres undefined) | – | – | > 100 | – | > 100 | – | > 100 | – | – | – | > 100 | – | – | > 100 | – | > 100 | > 100 | > 100 | > 100 | –
O=C(O)C1OC(Oc2cc(O)c3c(=O)cc(-c4ccc(O)cc4)oc3c2)C(O)C(O)C1O (centres undefined) | – | – | – | – | > 100 | – | > 100 | – | > 100 | – | – | – | – | > 100 | – | > 100 | > 100 | > 100 | – | –
O=C(CN1CCN(c2ccc(Cl)cc2)CC1)N1CCN(c2nnc(-c3ccccc3)c(-c3ccccc3)n2)CC1 | 4.41 | 5.91 | > 100 | 7.57 | > 100 | 2.11 | 8.31 | 4.04 | > 100 | 75.7 | > 100 | 42.9 | > 100 | > 100 | – | – | > 100 | > 100 | > 100 | 2.7
ClC[Si]12OCCN(CCO1)CCO2 | – | – | > 100 | – | – | – | > 100 | – | > 100 | – | > 100 | – | – | > 100 | – | > 100 | > 100 | > 100 | > 100 | –
CC[C@]12CCCN3CC[C@]4(C(=C(C(=O)OC)C1)Nc1ccccc14)[C@@H]32 | 10.9 | 11.9 | 43.4 | 18.9 | 63.1 | 15.4 | 28.8 | 16.7 | 39.1 | – | – | 16.8 | 19.9 | 56.7 | 21.3 | 64.7 | 24.1 | 29.7 | 45.6 | 13
COc1ccc(Cn2c(Br)c3c(c2-c2cc(OC)c(OC)c(OC)c2)CCc2sc(NC(C)=O)nc2-3)cc1 | 3.69 | 3.67 | > 100 | – | – | 2.82 | 21.4 | 4.03 | > 100 | – | – | 4.46 | 6.17 | 37.6 | 5.09 | > 100 | 35.1 | 83.4 | > 100 | 12.7
